Values joined by “and” are separate entries in the source; they are usually repeats but may differ in a detail not shown here. Equal entries are not always repeated.

Assay in all cases: Cell assay (liposome/EV binding, flow cytometry);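 as to liposome binding, fluorescence signal (replicates): AF647 fluorescence intensity from 0.1 mol% AF647–PEG45–DSPE in liposomes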
For orientation: Flow cytometry measures light scatter and fluorescence of single cells or particles in a stream.

Test [1] has as its system CHO cells expressing Siglec-6 mutants (C46A, C172A, R to A mutants, F93A, L95A, G175M). In kind it is cell-based, human. To be noted: cell assay. As for the experimental part:
(§1) Mutations were introduced into each Siglec via gene overlap extension PCR mutagenesis (primers were ordered through IDT). Mutagenesis primers can be found in Supplementary Tables 2 and 3 for the critical arginine mutants of the entire Siglec family and the additional Siglec-6 mutants respectively.
(§2) 200,000 cells/well were plated into a 96-well U-bottom microplate and centrifuged at 300 × g for 5 min. The cells were then resuspended in 50 µL of 50 µM liposome/50 µg/mL (protein concentration) of EV solution in DMEM F12 5% FBS and incubated at 37 °C for 30 min. Excess liposomes were then removed via centrifuged at 300 × g for 5 min followed by washing the cells with FACS solution. The cells were then resuspended in (1:250 V/V) anti-Siglec-flow buffer (1% V/V FBS, 500 µM, EDTA Hank’s Balanced Salt Solution pH 7.4), solution and left to rest on ice for 30 min. The cells were then centrifuged again at 300 × g for 5 min and the cells were resuspended in FACS buffer solution and were then ready for analysis by flow cytometry. Information regarding antibody clone, catalog number supplier, label isotype, and dilution can be found in Supplementary Table 6. The Siglec-positive cells were gated on for liposome-binding analysis (Supplementary Fig. 1b).
(§3) Flow cytometry measurements were collected on a 5-laser Fortessa X-20 (BD Bioscience). All the resulting data were analyzed using FlowJo (10.5.3) software (BD Biosciences).

In test [2] the target is T1, CHO cells expressing Siglec-6 mutants (C46A, C172A, R to A mutants, F93A, L95A, G175M) (Homo sapiens, UniProt O43699, E88A).
T1 construct: These new CHO cell lines are the full-length versions of the Siglecs; expressed in transfected cells
In kind it is cell-based. To be noted: sheet Figure S28b, 3% GM3-DAG liposomes, E88A. Here is the method: as §1, §2, §3

The target in test [3] is T2, CHO cells expressing Siglec-6 mutants (C46A, C172A, R to A mutants, F93A, L95A, G175M) (Homo sapiens, UniProt O43699, E173A).
T2 construct: These new CHO cell lines are the full-length versions of the Siglecs; expressed in transfected cells
In kind it is cell-based. Conditions: sheet Figure S28b, 3% GM3-DAG liposomes, E173A. Here is the method: as §1, §2, §3

For test [4], the target named is T3, CHO cells expressing Siglec-6 mutants (C46A, C172A, R to A mutants, F93A, L95A, G175M) (Homo sapiens, UniProt O43699, E87A).
T3 construct: These new CHO cell lines are the full-length versions of the Siglecs; expressed in transfected cells
Type of test: cell-based. Conditions: sheet Figure S28b, 3% GM3-DAG liposomes, E87A. As for the experimental part:
as §1, §2, §3

Test [5] deals with T4, CHO cells expressing Siglec-6 mutants (C46A, C172A, R to A mutants, F93A, L95A, G175M) (Homo sapiens, UniProt O43699, C172A).
T4 construct: These new CHO cell lines are the full-length versions of the Siglecs; expressed in transfected cells
Type of test: cell-based. Conditions: sheet Figure S26a, 3% GM3-DAG liposomes, C172A. As for the experimental part: as §1, §2, §3

For test [6], the target named is T5, CHO cells expressing Siglec-6 mutants (C46A, C172A, R to A mutants, F93A, L95A, G175M) (Homo sapiens, UniProt O43699, R114A).
T5 construct: These new CHO cell lines are the full-length versions of the Siglecs; expressed in transfected cells
Type of test: cell-based. To be noted: sheet Figure S26a, 3% GM3-DAG liposomes, R114A. Here is the method: as §1, §2, §3

Test [7] has as its target T6, CHO cells expressing Siglec-6 mutants (C46A, C172A, R to A mutants, F93A, L95A, G175M) (Homo sapiens, UniProt O43699, C46A).
T6 construct: These new CHO cell lines are the full-length versions of the Siglecs; expressed in transfected cells
In kind it is cell-based. Conditions: sheet Figure S26a, 3% GM3-DAG liposomes, C46A. Here is the method: as §1, §2, §3

The target in test [8] is T7, CHO cells expressing Siglec-6 mutants (C46A, C172A, R to A mutants, F93A, L95A, G175M) (Homo sapiens, UniProt O43699, L95A).
T7 construct: These new CHO cell lines are the full-length versions of the Siglecs; expressed in transfected cells
Type of test: cell-based. To be noted: sheet Figure S28b, 3% GM3-DAG liposomes, L95A. Here is the method:
as §1, §2, §3

The target in test [9] is T8, CHO cells expressing Siglec-6 mutants (C46A, C172A, R to A mutants, F93A, L95A, G175M) (Homo sapiens, UniProt O43699, R109A).
T8 construct: These new CHO cell lines are the full-length versions of the Siglecs; expressed in transfected cells
Type of test: cell-based. Conditions: sheet Figure S26a, 3% GM3-DAG liposomes, R109A. As for the experimental part: as §1, §2, §3

Test [10] deals with T9, CHO cells expressing Siglec-6 mutants (C46A, C172A, R to A mutants, F93A, L95A, G175M) (Homo sapiens, UniProt O43699, Q174A).
T9 construct: These new CHO cell lines are the full-length versions of the Siglecs; expressed in transfected cells
Type of test: cell-based. To be noted: sheet Figure S28b, 3% GM3-DAG liposomes, Q174A. As for the experimental part:
as §1, §2, §3

Test [11] concerns the target T10, CHO cells expressing Siglec-6 mutants (C46A, C172A, R to A mutants, F93A, L95A, G175M) (Homo sapiens, UniProt O43699, F93A).
T10 construct: These new CHO cell lines are the full-length versions of the Siglecs; expressed in transfected cells
In kind it is cell-based. Conditions: sheet Figure S28b, 3% GM3-DAG liposomes, F93A. As for the experimental part:
as §1, §2, §3

The target of test [12] is T11, CHO cells expressing Siglec-6 mutants (C46A, C172A, R to A mutants, F93A, L95A, G175M) (Homo sapiens, UniProt O43699, R113A).
T11 construct: These new CHO cell lines are the full-length versions of the Siglecs; expressed in transfected cells
Type of test: cell-based. To be noted: sheet Figure S26a, 3% GM3-DAG liposomes, R113A. Here is the method:
as §1, §2, §3

For test [13], the target named is T12, CHO cells expressing Siglec-6 mutants (C46A, C172A, R to A mutants, F93A, L95A, G175M) (Homo sapiens, UniProt O43699, R101A).
T12 construct: These new CHO cell lines are the full-length versions of the Siglecs; expressed in transfected cells
In kind it is cell-based. Conditions: sheet Figure S26a, 3% GM3-DAG liposomes, R101A. Here is the method:
as §1, §2, §3

For test [14], the target named is T13, CHO cells expressing Siglec-6 mutants (C46A, C172A, R to A mutants, F93A, L95A, G175M) (Homo sapiens, UniProt O43699, R112A).
T13 construct: These new CHO cell lines are the full-length versions of the Siglecs; expressed in transfected cells
Type of test: cell-based. Conditions: sheet Figure S26a, 3% GM3-DAG liposomes, R112A. As for the experimental part: as §1, §2, §3

Test [15] concerns the target T14, CHO cells expressing Siglec-6 mutants (C46A, C172A, R to A mutants, F93A, L95A, G175M) (Homo sapiens, UniProt O43699, R147A).
T14 construct: These new CHO cell lines are the full-length versions of the Siglecs; expressed in transfected cells
Type of test: cell-based. Conditions: sheet Figure S26a, 3% GM3-DAG liposomes, R147A. As for the experimental part: as §1, §2, §3

In test [16] the target is T15, CHO cells expressing Siglec-6 mutants (C46A, C172A, R to A mutants, F93A, L95A, G175M) (Homo sapiens, UniProt O43699, R90A).
T15 construct: These new CHO cell lines are the full-length versions of the Siglecs; expressed in transfected cells
Type of test: cell-based. To be noted: sheet Figure S26a, 3% GM3-DAG liposomes, R90A. As for the experimental part: as §1, §2, §3

T7 sequence (O43699 27-453 L95A): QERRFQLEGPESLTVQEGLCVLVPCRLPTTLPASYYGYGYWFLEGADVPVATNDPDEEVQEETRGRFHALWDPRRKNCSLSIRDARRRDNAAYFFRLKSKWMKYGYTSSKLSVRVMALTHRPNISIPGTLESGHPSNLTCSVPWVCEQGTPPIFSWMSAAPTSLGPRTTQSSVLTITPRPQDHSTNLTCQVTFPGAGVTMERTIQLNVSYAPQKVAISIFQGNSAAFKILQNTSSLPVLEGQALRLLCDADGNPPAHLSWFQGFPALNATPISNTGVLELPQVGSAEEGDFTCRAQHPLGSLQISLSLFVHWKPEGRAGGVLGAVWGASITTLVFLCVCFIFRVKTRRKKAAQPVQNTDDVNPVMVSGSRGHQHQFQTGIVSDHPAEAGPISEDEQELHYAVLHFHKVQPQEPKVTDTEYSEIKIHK
T15 sequence (O43699 27-453 R90A): as the sequence (O43699 27-453 L95A) above, with R64A, A69L counted along it
T12 sequence (O43699 27-453 R101A): as the sequence (O43699 27-453 L95A) above, with A69L, R75A counted along it
T11 sequence (O43699 27-453 R113A): as the sequence (O43699 27-453 L95A) above, with A69L, R87A counted along it
T13 sequence (O43699 27-453 R112A): as the sequence (O43699 27-453 L95A) above, with A69L, R86A counted along it
T4 sequence (O43699 27-453 C172A): as the sequence (O43699 27-453 L95A) above, with A69L, C146A counted along it
T9 sequence (O43699 27-453 Q174A): as the sequence (O43699 27-453 L95A) above, with A69L, Q148A counted along it
T5 sequence (O43699 27-453 R114A): as the sequence (O43699 27-453 L95A) above, with A69L, R88A counted along it
T3 sequence (O43699 27-453 E87A): as the sequence (O43699 27-453 L95A) above, with E61A, A69L counted along it
T14 sequence (O43699 27-453 R147A): as the sequence (O43699 27-453 L95A) above, with A69L, R121A counted along it
T10 sequence (O43699 27-453 F93A): as the sequence (O43699 27-453 L95A) above, with F67A, A69L counted along it
T6 sequence (O43699 27-453 C46A): as the sequence (O43699 27-453 L95A) above, with C20A, A69L counted along it
T8 sequence (O43699 27-453 R109A): as the sequence (O43699 27-453 L95A) above, with A69L, R83A counted along it
T2 sequence (O43699 27-453 E173A): as the sequence (O43699 27-453 L95A) above, with A69L, E147A counted along it
T1 sequence (O43699 27-453 E88A): as the sequence (O43699 27-453 L95A) above, with E62A, A69L counted along it

As for `CCCCCCCCCCCCCCCCOCC(COCCCCCCCCCCCCCCCC)OCc1cn(CCO[C@@H]2O[C@H](CO)[C@@H](O[C@@H]3O[C@H](CO)[C@H](O)[C@H](O[C@]4(C(=O)O)C[C@H](O)[C@@H](NC(C)=O)[C@H]([C@H](O)[C@H](O)CO)O4)[C@H]3O)[C@H](O)[C@H]2O)nn1` [nGL 5], in test [1], the “5 nGLL binding to C46A and C172A mutants of Siglec-6” value is listed as “did not recognize”; the “5 nGLL binding to F93A, L95A and G175M Siglec-6 mutants” value was “significantly decreased binding”; the “5 nGLL binding to R109A and R114A Siglec-6 mutants” value is on record as “modest reduction in binding”. The “5 nGLL binding to R92A and R100A Siglec-6 mutants” value in test [1] (both expressed at low levels) is on record as “more pronounced reduction in binding”.
For `CCCCCCCCCCCCCCCCOCC(COCCCCCCCCCCCCCCCC)OCc1cn(CCO[C@@H]2O[C@H](CO)[C@@H](O[C@@H]3O[C@H](CO)[C@H](O)[C@H](O[C@]4(C(=O)O)C[C@H](O)[C@@H](NC(C)=O)[C@H]([C@H](O)[C@H](O)CO)O4)[C@H]3O)[C@H](O)[C@H]2O)nn1` [GM3-DAG], the “liposome binding, fluorescence signal (replicates)” value (“liposome binding” for short) in test [2] was 2063 and 2173 and 2053; in [3], 1703 and 1773 and 1881 and 1652; in test [4], 2391 and 2152 and 2127; in test [5], 837 and 738 and 839 and 676; in test [6], 3286 and 2523 and 2193 and 4407; in test [7], 789 and 784 and 873 and 937. Further, the “liposome binding” value in test [8] was 497 and 522 and 557 and 567; in test [9], 3678 and 3427 and 3246 and 4185; in test [10], 1364 and 1584 and 1412; in [11], 1045 and 1034 and 1148; in test [12] it was 4924 and 3926 and 3532 and 5592; in test [13] it was 5191 and 3671 and 4272 and 5125. Moreover, the “liposome binding” value is 4575 and 4566 and 3393 and 4882 in test [14]; 10179 and 9364 and 9449 and 10723 in test [15]; 6321 and 6067 and 6474 and 6517 in test [16].
